From paper PMC10247784, “Physiological activation of human and mouse bitter taste receptors by bile acids” (Communications Biology, 2023)
“And” between values parts separate entries of the source, which are not always exact repeats. Identical values can stand only once.

Biological target: T1, human TAS2R4 (Homo sapiens, UniProt Q9NYW5)
T1 construct: expressed in transfected cells; host or cells: HEK293T-Gα16gust44
T1 sequence (Q9NYW5 1-299): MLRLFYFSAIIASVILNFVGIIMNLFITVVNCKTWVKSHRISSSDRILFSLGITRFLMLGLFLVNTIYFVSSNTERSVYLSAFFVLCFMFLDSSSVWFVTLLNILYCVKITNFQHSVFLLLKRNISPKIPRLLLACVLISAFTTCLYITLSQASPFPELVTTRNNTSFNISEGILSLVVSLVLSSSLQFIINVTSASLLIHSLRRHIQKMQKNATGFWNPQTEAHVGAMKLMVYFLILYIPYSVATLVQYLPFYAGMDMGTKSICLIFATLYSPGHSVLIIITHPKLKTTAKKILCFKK
Test: Calcium imaging assay (FLIPR), HEK293T-Gα16gust44 cells transfected with human TAS2R4
Type: cell-based
Summary of the method: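 Bile acids from DMSO stocks are applied to dye-loaded cells one day after transient receptor transfection, and calcium-dependent fluorescence is recorded. Maximum signal is standardized to basal and normalized to buffer-only wells, with empty-vector signal subtracted.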

Compound: C[C@H](CCC(=O)O)[C@H]1CC[C@H]2[C@@H]3[C@@H](O)C[C@@H]4C[C@H](O)CC[C@]4(C)[C@H]3CC[C@]12C [Ursodeoxycholic Acid, ursodeoxycholic acid]
- Efficacy = maximal amplitude (ΔF/F) (TAS2R4, bile acids, mean): 0.07236
- Efficacy (maximal amplitude ΔF/F), individual data points (TAS2R4, bile acids, single replicates, listed as UDCA): 0.07954 and 0.05089 and 0.08665
- Δ F/F (TAS2R4, conc. 0,01 mM): 0.05163
- Δ F/F (TAS2R4, conc. 0,03 mM): 0.07236
- Δ F/F (TAS2R4, conc. 0,00003 mM): 0.00102
- Δ F/F (TAS2R4, conc. 0,0001 mM): 0.006537
- Δ F/F (TAS2R4, conc. 0,0003 mM): -0.0004307
- Δ F/F (TAS2R4, conc. 0,001 mM): 0.008217
- Δ F/F (TAS2R4, conc. 0,003 mM): 0.01726
- RLU, fluorescence trace (Time (s) 0): 0 RLU
- RLU, fluorescence trace (Time (s) 2): -16.0588 RLU
- RLU, fluorescence trace (Time (s) 4): 1.8572 RLU
- RLU, fluorescence trace (Time (s) 6): -24.0432 RLU
- RLU, fluorescence trace (Time (s) 8): -15.0627 RLU
- RLU, fluorescence trace (Time (s) 12): -11.1029 RLU
- RLU, fluorescence trace (Time (s) 14): -16.031 RLU
- RLU, fluorescence trace (Time (s) 16): -22.0279 RLU
- RLU, fluorescence trace (Time (s) 18): -16.0557 RLU
- RLU, fluorescence trace (Time (s) 18.766 (TCA, TLCA: 18.782)): -31 RLU
- RLU, fluorescence trace (Time (s) 20.781 (TCA, TLCA: 20.782)): -77.5296 RLU
- RLU, fluorescence trace (Time (s) 22.781 (TCA, TLCA: 22.782)): -20.8274 RLU
- RLU, fluorescence trace (Time (s) 24.781 (TCA, TLCA: 24.782)): 13.5346 RLU
- RLU, fluorescence trace (Time (s) 26.781 (TCA, TLCA: 26.782)): 47.9642 RLU
- RLU, fluorescence trace (Time (s) 28.781 (TCA, TLCA: 28.782)): 73.9776 RLU
- RLU, fluorescence trace (Time (s) 30.781 (TCA, TLCA: 30.782)): 141.824 RLU
- RLU, fluorescence trace (Time (s) 32.781 (TCA, TLCA: 32.782)): 170.961 RLU
- RLU, fluorescence trace (Time (s) 34.781 (TCA, TLCA: 34.782)): 211.304 RLU
- RLU, fluorescence trace (Time (s) 36.781 (TCA, TLCA: 36.782)): 286.431 RLU
- RLU, fluorescence trace (Time (s) 38.781 (TCA, TLCA: 38.782)): 316.3 RLU
- RLU, fluorescence trace (Time (s) 40.781 (TCA, TLCA: 40.782)): 327.594 RLU
- RLU, fluorescence trace (Time (s) 42.781 (TCA, TLCA: 42.782)): 352.031 RLU
- RLU, fluorescence trace (Time (s) 44.781 (TCA, TLCA: 44.782)): 380.127 RLU
- RLU, fluorescence trace (Time (s) 46.781 (TCA, TLCA: 46.782)): 405.893 RLU
- RLU, fluorescence trace (Time (s) 48.781 (TCA, TLCA: 48.782)): 396.948 RLU
- RLU, fluorescence trace (Time (s) 50.781 (TCA, TLCA: 50.782)): 411.019 RLU
- RLU, fluorescence trace (Time (s) 52.781 (TCA, TLCA: 52.782)): 398.089 RLU
- RLU, fluorescence trace (Time (s) 54.781 (TCA, TLCA: 54.782)): 413.206 RLU
- RLU, fluorescence trace (Time (s) 56.781 (TCA, TLCA: 56.782)): 434.735 RLU
- RLU, fluorescence trace (Time (s) 58.781 (TCA, TLCA: 58.782)): 418.956 RLU
- RLU, fluorescence trace (Time (s) 60.781 (TCA, TLCA: 60.782)): 389 RLU
- RLU, fluorescence trace (Time (s) 62.781 (TCA, TLCA: 62.782)): 407.272 RLU
- RLU, fluorescence trace (Time (s) 64.781 (TCA, TLCA: 64.782)): 410.187 RLU
- RLU, fluorescence trace (Time (s) 66.781 (TCA, TLCA: 66.782)): 395 RLU
- RLU, fluorescence trace (Time (s) 68.781 (TCA, TLCA: 68.782)): 396.708 RLU
- RLU, fluorescence trace (Time (s) 70.781 (TCA, TLCA: 70.782)): 394.232 RLU
- RLU, fluorescence trace (Time (s) 72.781 (TCA, TLCA: 72.782)): 389.174 RLU
- RLU, fluorescence trace (Time (s) 74.781 (TCA, TLCA: 74.782)): 367.247 RLU
- RLU, fluorescence trace (Time (s) 76.781 (TCA, TLCA: 76.782)): 368.083 RLU
- RLU, fluorescence trace (Time (s) 78.781 (TCA, TLCA: 78.782)): 368.91 RLU
- RLU, fluorescence trace (Time (s) 80.781 (TCA, TLCA: 80.782)): 354 RLU
- RLU, fluorescence trace (Time (s) 82.781 (TCA, TLCA: 82.782)): 345.234 RLU
- RLU, fluorescence trace (Time (s) 84.781 (TCA, TLCA: 84.782)): 349.472 RLU
- RLU, fluorescence trace (Time (s) 86.781 (TCA, TLCA: 86.782)): 337.61 RLU
- RLU, fluorescence trace (Time (s) 88.781 (TCA, TLCA: 88.782)): 322.366 RLU
- RLU, fluorescence trace (Time (s) 90.781 (TCA, TLCA: 90.782)): 310.929 RLU
- RLU, fluorescence trace (Time (s) 92.781 (TCA, TLCA: 92.782)): 320.728 RLU
- RLU, fluorescence trace (Time (s) 94.781 (TCA, TLCA: 94.782)): 299.044 RLU
- RLU, fluorescence trace (Time (s) 96.781 (TCA, TLCA: 96.782)): 305.557 RLU
- RLU, fluorescence trace (Time (s) 98.781 (TCA, TLCA: 98.782)): 298.819 RLU
- RLU, fluorescence trace (Time (s) 100.781 (TCA, TLCA: 100.782)): 293.739 RLU
- RLU, fluorescence trace (Time (s) 102.781 (TCA, TLCA: 102.782)): 282.259 RLU
- RLU, fluorescence trace (Time (s) 104.781 (TCA, TLCA: 104.782)): 266.754 RLU
- RLU, fluorescence trace (Time (s) 106.781 (TCA, TLCA: 106.782)): 276.382 RLU
- RLU, fluorescence trace (Time (s) 108.781 (TCA, TLCA: 108.782)): 259.159 RLU
- RLU, fluorescence trace (Time (s) 110.781 (TCA, TLCA: 110.782)): 276.445 RLU
- RLU, fluorescence trace (Time (s) 112.781 (TCA, TLCA: 112.782)): 267.37 RLU
- RLU, fluorescence trace (Time (s) 114.781 (TCA, TLCA: 114.782)): 253.353 RLU
- RLU, fluorescence trace (Time (s) 116.781 (TCA, TLCA: 116.782)): 251.234 RLU
- RLU, fluorescence trace (Time (s) 118.781 (TCA, TLCA: 118.782)): 253.766 RLU
- RLU, fluorescence trace (Time (s) 120.781 (TCA, TLCA: 120.782)): 230.621 RLU
- RLU, fluorescence trace (Time (s) 122.781 (TCA, TLCA: 122.782)): 238.721 RLU
- RLU, fluorescence trace (Time (s) 124.781 (TCA, TLCA: 124.782)): 218.638 RLU
- RLU, fluorescence trace (Time (s) 126.781 (TCA, TLCA: 126.782)): 215.286 RLU
- RLU, fluorescence trace (Time (s) 128.781 (TCA, TLCA: 128.782)): 226.16 RLU
- RLU, fluorescence trace (Time (s) 130.781 (TCA, TLCA: 130.782)): 229.593 RLU
- RLU, fluorescence trace (Time (s) 132.781 (TCA, TLCA: 132.782)): 216.307 RLU
- RLU, fluorescence trace (Time (s) 134.781 (TCA, TLCA: 134.782)): 209.298 RLU
- RLU, fluorescence trace (Time (s) 136.781 (TCA, TLCA: 136.782)): 214.712 RLU
- RLU, fluorescence trace (Time (s) 137.547): 211.548 RLU
- RLU, fluorescence trace (Time (s) 143.547): 195.123 RLU
- RLU, fluorescence trace (Time (s) 149.547): 191.876 RLU
- RLU, fluorescence trace (Time (s) 155.547): 182.53 RLU
- RLU, fluorescence trace (Time (s) 161.547): 172.093 RLU
- RLU, fluorescence trace (Time (s) 167.547): 173.823 RLU
- RLU, fluorescence trace (Time (s) 173.547): 178.999 RLU
- RLU, fluorescence trace (Time (s) 179.547): 149.456 RLU
- RLU, fluorescence trace (Time (s) 185.547): 128.186 RLU
- RLU, fluorescence trace (Time (s) 191.547): 150.92 RLU
- RLU, fluorescence trace (Time (s) 197.547): 155.041 RLU
- RLU, fluorescence trace (Time (s) 203.547): 152.046 RLU
- RLU, fluorescence trace (Time (s) 209.547): 155.822 RLU
- RLU, fluorescence trace (Time (s) 215.547): 146.722 RLU
- RLU, fluorescence trace (Time (s) 221.547): 144.396 RLU
- RLU, fluorescence trace (Time (s) 227.547): 187.605 RLU
- RLU, fluorescence trace (Time (s) 233.547): 160.672 RLU
- RLU, fluorescence trace (Time (s) 239.547): 166.203 RLU
- RLU, fluorescence trace (Time (s) 245.547): 147.048 RLU
- RLU, fluorescence trace (Time (s) 293.547): 162.322 RLU
- RLU, fluorescence trace (Time (s) 299.547): 130.446 RLU
- RLU, fluorescence trace (Time (s) 305.547): 132.691 RLU
- RLU, fluorescence trace (Time (s) 311.547): 138.907 RLU
- RLU, fluorescence trace (Time (s) 317.547): 111.452 RLU
- RLU, fluorescence trace (Time (s) 323.547): 135.942 RLU
- RLU, fluorescence trace (Time (s) 329.547): 131.935 RLU
- RLU, fluorescence trace (Time (s) 335.547): 149.888 RLU
- RLU, fluorescence trace (Time (s) 341.547): 132.356 RLU
- RLU, fluorescence trace (Time (s) 347.547): 117.981 RLU
- RLU, fluorescence trace (Time (s) 353.547): 135.981 RLU
- RLU, fluorescence trace (Time (s) 359.547): 144.823 RLU
- Activation threshold concentration TAS2R4 (lowest concentration with significantly increased fluorescence vs empty vector (p < 0.01)): 3 µM
